Experiments:
MHV-68-Luc = assay: MHV-68 replication assay in Vero cells; assay type: cell-based, murine herpesvirus 68; conditions: Murine herpesvirus, read-out: EC50 MHV-68
Protocol: (§1) Primary human foreskin fibroblasts (HFFs; obtained from clinical samples at Children’s Hospital in Erlangen, Germany), guinea pig embryonic fibroblasts (GPEFs; generously provided by Mark R. Schleiss from the University of Minnesota in Minneapolis, MN, USA), and rat embryonic fibroblasts were cultivated in Eagle’s Minimal Essential Medium (MEM) supplemented with 1 × GlutaMAX™ (both from Thermo Fisher Scientific, Waltham, MA, USA), 10 µg/mL gentamicin, and 10% fetal bovine serum (FBS; Capricorn, Ebsdorfergrund, Germany). Human glioblastoma–astrocytoma cell line (U373) and mouse embryonic fibroblasts (MEFs), both obtained from ATCC (Manassas, VA, USA), and Vero cell sublineage 76 [26], were cultivated in Dulbecco’s modified Eagle’s medium (DMEM) supplemented with 1 × GlutaMAX™, 10 µg/mL gentamicin, and 10% fetal bovine serum. All cultured cells were maintained under the conditions of 37 °C temperature, 5% CO2, and 80% humidity. The regular monitoring for the absence of mycoplasma contamination was conducted using Lonza™ Mycoalert™ (Thermo Fisher Scientific, Waltham, MA, USA). Cultured cell-based viral replication assays were performed by the use of the HCMV strain AD169 (variant U.K.), the recombinant HCMVs AD169-GFP expressing green fluorescent protein [27], TB40 IE2-YFP and TB40-FLuc expressing an IE2-YFP fusion protein or firefly luciferase (FLuc), and Merlin-GFP [31]. […]
(§2) A variety of antiherpesviral and non-herpesviral drug activities were assessed by the cell culture-based viral replication systems, as described elsewhere. […] After incubation at 37 °C for 3 days, iSLK.219 cells were fixed with 10% formalin, washed with PBS, and used for a quantitation of RFP reporter signal by PicoMD counting (ImageXpress® Pico device, Molecular Devices LLC, San Jose, CA, USA). […]

JCPyV strain Mad-4 = assay: JCPyV replication assay in COS-7 cells (qPCR); assay type: cell-based, human polyomavirus; conditions: Polyomavirus sp.; JCPyV strain Mad-4 in COS-7 cells, n = 1
Protocol: as §1, with “humidity.” for “humidity. The regular monitoring for the absence of mycoplasma contamination was conducted using Lonza™ Mycoalert™ (Thermo Fisher Scientific, Waltham, MA, USA). Cultured cell-based viral replication assays were performed by the use of the HCMV strain AD169 (variant U.K.), the recombinant HCMVs AD169-GFP expressing green fluorescent protein [27], TB40 IE2-YFP and TB40-FLuc expressing an IE2-YFP fusion protein or firefly luciferase (FLuc), and Merlin-GFP [31].”
as §2

HCMV AD169 = assay: Western blot analysis of HCMV protein expression in infected HFFs; assay type: cell-based, human cytomegalovirus; conditions: 30 nM, HCMV AD169 MOI 0.1, 5 d and 7 d p.i.
Protocol: (§3) Western blot (Wb) analyses were performed as previously described using total lysates prepared from infected and mock-infected HFFs. For this purpose, HFFs were seeded at 3 × 10^5 cells/6-well and used for infection with HCMV AD169, or other viruses as indicated, then treated with compounds or solvent control. At the given time points of infection, the total lysates were prepared and used for separation on standard SDS-PAGE/Wb procedures. For Wb staining, antibodies specific for CDK8 (A302-501A, Bethyl Laboratories, Montgomery, TX, USA); viral proteins such as mAb-IE1, mAb-UL44, mAb-pp28, and mAb-MCP (kindly provided by S. Jonjic and T. Lenac Rovis, Rijeka, Croatia); as well as mAb-β-actin as a house-keeping protein and loading control (A5441, Sigma Aldrich, St. Louis, MO, USA) were used, followed by incubation and staining with the appropriate HRP-conjugated secondary antibodies.

HCMV AD169-UL50-HA = assay: Virus entry analysis, pre-post-incubation versus post-incubation (Western blot); assay type: cell-based, human cytomegalovirus; conditions: CCT 5 nM and 15 nM, HFFs, MOI 0.01, 7 d p.i.
Protocol: as §3

Row | SMILES | EC50 (MHV-68-Luc) [nM] | EC50 (JCPyV strain Mad-4) [nM] | viral late (L) protein level (pp28), Western blot (HCMV AD169) | effect at the stage of virus entry (HCMV AD169-UL50-HA)
1 | CN(C)C(=O)Cn1cc(-c2ccc(-c3cncc4ccccc34)cc2)cn1 [BI-1347] | 0.8 ± 1 | 860 ± 1550 |  | 
2 | Cn1ncc2cc(-c3cnc(N)c(Cl)c3N3CCC4(CCNC4=O)CC3)ccc21 [CCT-151921] | 22 ± 19 | 3670 ± 3000 | complete inhibition | does not act at the stage of virus entry
3 | Cc1n[nH]c2ncc(C(=O)N3CCC[C@H]3c3ccc(Cl)cc3)cc12 [MSC-2530818] | 2.5 ± 3 |  |  | 

— paper PMC11435438, “Cyclin-Dependent Kinase 8 Represents a Positive Regulator of Cytomegalovirus Replication and a Novel Host Target for Antiviral Strategies” (Pharmaceutics, 2024)
